Laboratory results as given in patent publication US12214076B2, “Drug delivery vehicles for atherosclerosis nanomedicine” (Northwestern University, priority 2019, dated 2025).
Peptide text beside a SMILES is read from it. * marks the point of attachment. Palmitoyl = CCCCCCCCCCCCCCCC(=O)*

How the values were obtained:
[1] = Nile Red assay, critical aggregation concentration; type: physicochemical; details: PBS, aged 24 hours at 4° C.
Protocol: Nile Red assay: The critical aggregation concentration (CAC) for PA nanofibers was determined by diluting the PAs in Nile Red solution. Nile Red undergoes a blue shift in fluorescence as the hydrophobic character of PAs in the solvent increases, with a corresponding increase in fluorescence intensity due to reduced twisted intramolecular charge transfer. 10% MMP- and ROS-Ac2-26 PAs were diluted from 1 mM to 100 nM in PBS containing of 2.5 μM Nile Red and aged for 24 hours at 4° C. The PAs were aliquoted in triplicate onto a 96-well plate, excited at 550 nm, and the fluorescence read from […]. The CAC was determined by plotting the log of the concentration with the corresponding maximum fluorescence intensity, and calculating the concentration at the intersection of the baseline and tangent line to the rising curve.

J774.2 macrophage = assay: Cytocompatibility, MUSE Count and Viability Assay (Example 2); type: cell-based, mouse; details: 24 hours of treatment, 32 μM Ac2-26
Protocol: Macrophage culture and characterization: J774.2 murine macrophages (Sigma-Aldrich) were expanded at 4-9×10^5 cells/mL in growth media consisting of Dulbecco's Modified Eagle's Medium (Sigma-Aldrich) containing 4.5 g/L glucose, 2 mM L-glutamine, 10% v/v FBS, 100 U/m penicillin, and 100 μg/mL streptomycin. Cells were passaged using Accutase™ (StemCell Technologies) and used at passage 6-9 for all experiments. The cells were detached with Accutase™ and gentle scraping, counted, and re-suspended in flow cytometry buffer containing 2% w/v bovine serum albumin (BSA, heat shock fraction free of proteases, globulin, and fatty acids, Sigma-Aldrich) and 0.1% w/v sodium azide (Sigma-Aldrich). To minimize non-specific binding of immunoglobin to Fc receptors, macrophages were incubated with anti-mouse CD16/32 antibody (TrueStain FcX™, Biolegend) at 1 μg/1×10^5 cells for 10 minutes at 4° C. […] All samples were analyzed using Attune NxT Acoustic Focusing Cytometer (Thermo Fisher) with at least 2000 events counted per condition.
Cytocompatibility: Macrophages were seeded at 2.1×10^5 cells/cm^2 on 24 well plates and treated with 32 μM of Ac2-26 or 320 μM PA co-assemblies (final Ac2-26 concentration of 32 μM) for 24 hours. […] Cells were detached by Accutase treatment for 20 minutes and counted using a MUSE® Count and Viability Assay Kit and cytometer (Emd millipore).

[2] = Off-target localization in internal organs, fluorescent pixel analysis; type: in vivo, mouse
Protocol: Dose and concentration study: To determine the optimum concentration for targeting efficacy and safety, LDLR KO mice fed the high fat diet for 14 weeks were injected with PA nanofiber at concentrations of 1 mg/mL, 2 mg/mL, and 4 mg/mL at 8 mg/kg in PBS. Similarly, to determine the optimum dose for targeting efficacy and safety, LDLR KO mice fed the high fat diet for 14 weeks were injected at PA nanofiber doses of 8 mg/kg, 6 mg/kg, 4 mg/kg, 3.3 mg/kg, and 1.7 mg/kg at 2 mg/mL in PBS. Safety, optimum dose, and concentration for targeting was assessed by survival of the animal and fluorescent pixel quantification in the aortic root, liver, lungs, kidneys, and spleen.
Tissue processing and imaging: Mice were sacrificed and euthanized under inhaled isoflurane anesthesia by diaphragm disruption and exsanguination. Phlebotomy was performed through direct right ventricular cardiac puncture using a 1 mL syringe and 25 G needle. Perfusion was performed through left ventricular cardiac puncture with 10 mL PBS and 10 mL 10% sucrose solution. The lungs, liver, spleen, kidney, aortic root, aortic arch, and descending aorta were harvested and stored in 10% sucrose for 20 minutes. Organs and vessels were then flash-frozen in Optimal Cutting Temperature embedding medium 4583 (Tissue-Tek®) with liquid nitrogen. Frozen specimens were stored at −80° C. and cryosectioned at […]. Confocal microscopy was performed on a Nikon AIR microscope. Two sets of images were acquired with a 10× Plan Fluor NA 0.3 objective. PAs were identified through quantification of the Alexa Fluor® 546 conjugated dye with 561 nm excitation and a 600/50 nm emission filter.
Images were acquired with spectral detection and spectrally unmixed to accurately separate green autofluorescence from the red Alexa Fluor® 546 signal. […] Slides were stained with Oil Red O to image and quantify atherosclerosis under brightfield microscopy. […] Fluorescent pixel quantification in the aortic root and within organs was performed with ImageJ software.

detection in the lung, liver, and kidney ([2]; 1-14 days post injection) | time when red fluorescent pixels returned to non-injected control levels ([2]; all internal organs, post injection) | time of detection in the spleen ([2]; post injection) | Molecule | critical aggregation concentration (CAC) [1] | J774.2 macrophage viability (J774.2 macrophage)
– | – | – | 10% MMP-Ac2-26 PA: co-assembly of 10 mol % MMP-Ac2-26 PA, 50 mol % E2 filler PA, and 40% ApoA1 PA (VVAAEEGGGPQGIWGQGKAMVSEFLKQAWFIENEEQEYVQTVK) | ~32 µM | No significant differences
minimal detection | 10 to 14 days | 1 to 10 days | CCCCCCCCCCCCCCCC(=O)N[C@H](C(=O)N[C@H](C(=O)N[C@@H](C)C(=O)N[C@@H](C)C(=O)N[C@@H](CCC(=O)O)C(=O)N[C@@H](CCC(=O)O)C(=O)NCC(=O)N[C@@H](CC(=O)O)C(=O)N[C@@H](Cc1c[nH]c2ccccc12)C(=O)N[C@@H](Cc1ccccc1)C(=O)N[C@@H](CCCCN)C(=O)N[C@@H](C)C(=O)N[C@@H](Cc1ccccc1)C(=O)N[C@@H](Cc1ccc(O)cc1)C(=O)N[C@@H](CC(=O)O)C(=O)N[C@@H](CCCCN)C(=O)N[C@H](C(=O)N[C@@H](C)C(=O)N[C@@H](CCC(=O)O)C(=O)N[C@@H](CCCCN)C(=O)N[C@@H](Cc1ccccc1)C(=O)N[C@@H](CCCCN)C(=O)N[C@@H](CCC(=O)O)C(=O)N[C@@H](C)C(=O)N[C@@H](Cc1ccccc1)C(N)=O)C(C)C)C(C)C)C(C)C [ApoA1 PA] (Palmitoyl-VVAAEEGDWFKAFYDKVAEKFKEAF-NH2) | – | –
